Source: patent US20070191324A1, “Methods for treatment or prophylaxis of aldosterone-mediated pathogenic effects in a subject using an epoxy-steroidal aldosterone antagonist” (priority 1999, published 2007)

What was measured:
[1] = system: L-NAME/Angiotensin II/NaCl-treated rats; assay: L-NAME/Angiotensin II/NaCl model of cardiac and renal injury (Example A-1); assay type: in vivo, Male Wistar rats; settings: Epl 100 mg/kg/day p.o., ALDO 40 μg/kg/day in adrenalectomized rats
Method: Animals. Male Wistar rats (n=44), weighing 200 to 225 grams, and obtained from Charles River Laboratories (Wilmington, Mass.) were used in the study. All animals were housed in a room lighted 12 hours per day at an ambient temperature of 22±1° C. Animals were allowed one week to recover after arrival and had free access to Purina Lab Chow 5001 (Ralston Purina Inc, St. Louis, Mo.) and tap water until the initiation of the experiment. After initiation of the protocols, animals in all groups were placed in individual metabolic cages, handled and weighed daily. Twenty-four hour fluid intake, food intake and urine output were measured daily. […] On day 14 of L-NAME treatment, animals were decapitated, trunk blood was collected into chilled tubes containing ethylene diamine tetraacetic acid and the heart and kidneys were removed, blotted dry and immediately weighed. […] Drugs. Eplerenone was supplied by G.D. Searle Pharmaceuticals (St. […] Dexamethasone was dissolved in sesame oil and administered as a single subcutaneous dose (12 μg/kg/day) every day. This dose of dexamethasone has been reported to, maintain normal weight gain, glomerular filtration rate, and fasting plasma glucose and insulin levels in adrenalectomized rats. Stanton, B., Giebisch G et al. J. Clin. Invest 1985 75:1317-1326. The experiment was concluded on day 14 of L-NAME treatment. […] (Hou J et al. J. Clin. Invest 1995 96:2469-2477. […] This lower dose induced lesions in stroke-prone spontaneously hypertensive rats. (Rocha R et al. […] Dexamethasone, aldosterone and L-NAME were purchased from Sigma Chemical Co. (St. Louis, Mo.). […] Surgical Procedure. […] Bilateral adrenalectomy was performed using a dorsolumbar approach, making separate incisions on each side. […] No post operative deaths occurred. Assays and Analyses. Systolic blood pressure was measured in awake animals by tail-cuff plethysmography using a Natsume KN-210 manometer and tachometer (Peninsula Laboratories Inc, Belmont, Calif.). Rats were warmed at 37° C. for 10 minutes and allowed to rest quietly in a Lucite chamber before measurement of blood pressure. Urinary protein concentration was determined in urine collected on the last day of the experiment using the sulfosalicylic acid turbidity method. […] Plasma aldosterone concentration was determined using a standard radioimmunoassay-kit from Diagnostic Products Co. (Los Angeles, Calif.). Plasma renin activity (“PRA”) was determined by radioimmunoassay detection of generated angiotensin I (DiaSorin Inc., Stillwater, Minn.). Histology. Hearts were stained with collagen specific dye Sirius red for determination of fibrosis as reported elsewhere. (Young M et al. Am. J. Physiol 1995 269:[…]-[…]). Interstitial collagen was determined using an automated image analyzer. The hearts were also stained with hematoxylin and eosin for light microscopic analysis. Two or three slices of different sections of the heart containing both right and left ventricle were analyzed from each animal. […] Glomerular damage, when present, was characterized as the presence of either segmental or global sclerosis with ischemic or thrombotic changes. Renal arterial and arteriolar damage was categorized as the presence of fibrinoid necrosis of the vascular wall. The renal arterial and arteriolar profiles presenting damage were counted and the number of injured vessels per section was divided by the number of glomeruli in the same section in order to normalize for the amount of tissue examined. […] Statistical analysis. Data were tested for normality using the Kolmogorov-Smirnov test. Systolic blood pressure was analyzed using repeated measures-analysis of variance for time and treatment group. One-way analysis of variance was used for normally distributed data with one grouping variable. Post-hoc analysis was performed using Newman Keuls multiple-comparison test. Data that were not normally distributed were analyzed with the Kruskal-Wallis test. […]

[2] = system: saline-loaded adrenalectomized rats treated with aldosterone; assay: Antimineralocorticoid activity in saline-loaded adrenalectomized rats treated with aldosterone (Example A-2); assay type: in vivo; settings: aldosterone alone
Method: Methods: The antimineralocorticoid pharmacological activity was determined in saline-loaded adrenalectomized rats treated with aldosterone. […] Urinary sodium, potassium and water excretion were measured.

[3] = system: saline-hydrated conscious dogs treated with aldosterone; assay: Antimineralocorticoid action in saline-hydrated conscious dogs treated with aldosterone (Example A-2); assay type: in vivo; settings: aldosterone i.v. infusion; antagonist 10 mg/kg orally
[4] = system: saline-loaded adrenalectomized rats treated with aldosterone; assay: Subcutaneous vs. oral eplerenone in saline-loaded adrenalectomized rats treated with aldosterone (Example A-3); assay type: in vivo; settings: aldosterone alone
Method: Urinary sodium, potassium and water excretion were measured. The results are expressed as the ratio of excreted urinary sodium to potassium (Na/K)±SEM.

[5] = system: uninephrectomized rats given 1% NaCl and aldosterone infusion; assay: Volume expanded hypertensive rats, telemetry (Example A-4); assay type: in vivo; settings: aldosterone & vehicle; 24 h average after three weeks
[6] = Dissolution rate and physical stability of solid state forms of eplerenone; assay type: physicochemical; settings: temperatures below the enantiotropic transition temperature, versus Form H

**Q.** Which HW ([1]; end of experiment (day 14)) does the source give for `C[C@]12CCC(=O)C=C1CC[C@@H]1[C@@H]2[C@@H](O)C[C@]2(C=O)[C@@H](C(=O)CO)CC[C@@H]12` [Aldosterone] here?
**A.** The HW was 951 ± 16 mg.

**Q.** What about the “HW/BW (cardiac hypertrophy index)” value ([1]; end of experiment (day 14)) of the same compound?
**A.** The value was 3.57 ± .06 mg/g.

**Q.** And the SBP ([1]; end of experiment)?
**A.** Its SBP is 192 ± 7 mmHg.

**Q.** What about the “Urinary Na/K ± SEM” value [2] of the same compound?
**A.** Its value is 1.68 ± 0.04.

**Q.** What about the “Na/K Ratio” value [3] of the same compound?
**A.** Its value is 0.09.

**Q.** And the “Urinary Excretion Potassium” value [3]?
**A.** Its value is 10.5 mmol/2 h.

**Q.** What about the “Urinary Excretion Sodium” value [3] of the same compound?
**A.** The value was 1.0 mmol/2 h.

**Q.** What about the “Mean Na/K” value ([4]; Table A-3A) of the same compound?
**A.** The value was 1.68.

**Q.** And the “Mean Na/K” value ([4]; Table A-3B)?
**A.** Its value is 1.21.

**Q.** What about the “HR: Heart Rate” value [5] of the same compound?
**A.** Its value is 346 ± 6 beats/min.

**Q.** And the “SAP: Systolic arterial pressure” value [5]?
**A.** Its value is 202 ± 7 mmHg.

**Q.** With `COC(=O)[C@@H]1CC2=CC(=O)CC[C@]2(C)[C@@]23O[C@@H]2C[C@@]2(C)[C@@H](CC[C@@]24CCC(=O)O4)[C@H]13` [Form L] as the compound, how does the physical stability [6] read?
**A.** Its physical stability is “greater physical stability”.
